Paper PMC9499463, “Potent Chlorambucil-Platinum(IV) Prodrugs” (International Journal of Molecular Sciences, 2022)
Where “and” joins values, the source holds several entries; their conditions need not be identical. Equal entries are not always repeated.

Assays:
[1] = tested on: A431 skin; test: MTT growth inhibition assay, 72 h; assay type: cell-based, human
[2] = tested on: SJ-G2 glioblastoma; test: MTT growth inhibition assay, 72 h; assay type: cell-based, human
[3] = tested on: ADDP ovarian (cisplatin-resistant A2780 clone); test: MTT growth inhibition assay, 72 h; assay type: cell-based, human; details: MTT, 72 h
[4] = tested on: HT29 colon cells; test: ROS detection assay (DCFH-DA fluorescence); assay type: cell-based, human; details: compounds at GI50 concentration, TBHP and NAC 20 μM
Experimental: HT29 colon cells were stained by DCFH-DA and then treated with the compounds at each specific GI50 concentration. Upon ROS production, the DCFH-DA produced […], a fluorescent product. The measured fluorescence was, therefore, proportional to the produced ROS. […] 56CLB at 24 h reported 395 RFU, 437 RFU at 48 h, and 558 RFU at 72 h (Table 6, Figure 14 and Figure S42), respectively, showing a significant production of ROS in comparison to control cells. 5CLB at 24 h produced 337 RFU, 324 RFU at 48 h, and 376 RFU at 72 h (Table 6, Figure 14 and Figure S42), respectively.
To investigate for the presence of ROS in treated cells, DCFDA/H2DCFDA-cellular ROS Assay Kit (Abcam, Cambridge, MA, USA) was used, as described. A total of 25,000 cells/mL of HT29 cells in DMEM were seeded in 96-well plates. Cells were washed with 1X kit buffer, then stained with 25 μM 2’,7’-dichlorofluorescein diacetate (DCFH-DA) and incubated for 45 min. DCFH-DA was then removed, and cells were then re-washed with 1X kit buffer, after which phenol red free media was added. Cells were then treated with GI50 drug concentration for each complex. The plates were directly scanned to measure fluorescence (relative fluorescence units (RFU)) at different time points using the Glo-Max®-Multimode microplate reader (Promega Corporation, Alexandra, VIC, Australia) at an excitation/emission of 485/535 nm. To generate the positive control (20 μM tert-butyl hydroperoxide (TBHP)), cells were washed with 1X kit buffer, and stained with DCFDA (25 μM) for 45 min. DCFDA was then removed and TBHP was added in phenol red free media. The plate was scanned to measure the RFU at different time points as mentioned above. The same method applies for the negative control treated with 20 μM N-acetylcysteine (NAC).

[5] = Reduction experiments with ascorbic acid by 1H-NMR and 1D-195Pt-NMR; assay type: physicochemical; details: 10 mM AsA, 10 mM PBS (~7.4 pH), D2O, 37 °C, 1H-NMR
Experimental: Intracellularly, a platinum(IV) complex is reduced into its platinum(II) congener and axial ligands in the presence of biological reducing agents such as AsA or glutathione. This report followed the reduction in PCLB, 5CLB, and 56CLB using ^1H-NMR and 1D-^195Pt-NMR spectroscopy. The method used for the reduction experiments was adapted from the literature with minor modifications. A total of 10 mM PBS (~7.4 pH) was selected as media to mimic physiological conditions, while 10 mM AsA was used as the biological reducing agent. Prior to the reduction experiments, a control was considered where each metal complex was dissolved with PBS in D2O. 1D-^195Pt-NMR was employed within the regions of −2800 and 400 ppm (30 min per region) at 37 °C. Typically, our platinum(II) complexes resonate within the −2800 ppm region (Figures S1–S3), while their platinum(IV) derivatives resonate around the 400 ppm region (Figures S4–S6). A control was required to ensure that the PBS would not interfere in the reduction process of the complexes. From the preliminary 1D-^195Pt-NMR spectra obtained (Figure 11), the state of all complexes was unchanged, and no sign of reduction was observed.
The reduction property of PCLB was monitored for 1 h by ^1H-NMR spectroscopy at 37 °C (Figure 12). Utilizing the resonances of the phenanthroline protons (H2 and H9; H4 and H7; H5 and H6; H3 and H8) from both platinum(II) and (IV) species as a qualitative measure of […], and considering that the resonances of these phenanthroline protons from both platinum(II) and (IV) species were almost equivalent, it is estimated that 40–50% reduction occurs within 10 min. […] A notable observation from the ^1H-NMR experiments is the movement of resonances, particularly the upfield shift of the phenanthroline protons and the downfield shift of the aromatic protons of CLB (Figure 12).
The reduction behavior of PCLB, 5CLB, and 56CLB was monitored using ^1H-NMR and 1D-^195Pt-NMR spectroscopy. A sequence of ^1H-NMR experiments was carried out for 1 h at 37 °C, followed by 1D-^195Pt-NMR within the regions of −2800 and 400 ppm. An amount of 10 mM PBS (~7.4 pH) was transferred to a vial and reduced to dryness through rotary evaporation. AsA (~1 mg) was combined with the metal complex (~5 mg) and transferred to the vial containing the dried PBS. A total of 600 µL of D2O was then added to the vial to dissolve the complex, AsA and the PBS together. Each reaction was followed at 37 °C until the complete reduction in the prodrugs.

SMILES	GI50 [1]	GI50 [2]	GI50 [3]	ROS Production ([4]; 24 h)	ROS Production ([4]; 48 h)	ROS Production ([4]; 72 h)	state of the complex at 1 h [5]	time at which the complex started reducing [5]	time to reach 50% reduction [5]
O=C(CCCc1ccc(N(CCCl)CCCl)cc1)[O][Pt-2]12([OH])([NH2+][C@H]3CCCC[C@@H]3[NH2+]1)[n+]1cccc3ccc4ccc[n+]2c4c31.O=[N+]([O-])[O-].O=[N+]([O-])[O-] [PCLB, [Pt^IV(1,10-phenanthroline)(S,S-DACH)(CLB)(OH)](NO3)2]	510 ± 0.1 nM	320 ± 0.04 nM	290 ± 0.037 nM	190 RFU and 190 ± 2 RFU	244 RFU and 244 ± 7 RFU	285 RFU and 285 ± 3 RFU	almost reduced to its platinum(II) congener	5 min	
Cc1c(C)c2cccnc2c2ncccc12.N[C@H]1CCCC[C@@H]1N.O=C([O-])CCCc1ccc(N(CCCl)CCCl)cc1.O=[N+]([O-])[O-].O=[N+]([O-])[O-].[OH-].[Pt+4] [56CLB, [Pt^IV(5,6-dimethyl-1,10-phenanthroline)(S,S-DACH)(CLB)(OH)](NO3)2]	34 ± 0.0037 nM	130 ± 0.03 nM	10 ± 0.0028 nM	395 RFU and 395 ± 3 RFU	437 RFU and 437 ± 2 RFU	558 RFU and 558 ± 2 RFU			approximately 5 min
Cc1cc2cccnc2c2ncccc12.N[C@H]1CCCC[C@@H]1N.O=C([O-])CCCc1ccc(N(CCCl)CCCl)cc1.O=[N+]([O-])[O-].O=[N+]([O-])[O-].[OH-].[Pt+4] [5CLB, [Pt^IV(5-methyl-1,10-phenanthroline)(S,S-DACH)(CLB)(OH)](NO3)2]	90 ± 0.015 nM	180 ± 0.02 nM	26 ± 0.0064 nM	337 RFU and 337 ± 8 RFU	324 RFU and 324 ± 5 RFU	376 RFU and 376 ± 1 RFU			approximately 5 min
